# Test results as given in ChEMBL document CHEMBL5375955, “Discovery of New Fusobacterium nucleatum Inhibitors to Attenuate Migratory Capability of Colon Cancer Cells by the Drug Repositioning Strategy” (J Med Chem, 2023).
# Activity calls are given as the source filed them. The calls are words filed in the database; no cut-off is given here.
# Columns and labels:
# Fusobacterium nucleatum [1] = assay: Antibacterial activity against Fusobacterium nucleatum ATCC 23726 assessed as downregulation of NTR gene expression incubated for 48 hrs by RT-qPCR analysis; type: functional, organism-based
# Akkermansia muciniphila = assay: Antibacterial activity against Akkermansia muciniphila ATCC BAA-835 assessed as bacterial growth inhibition incubated for 48 hrs by broth dilution susceptibility test; type: functional
# [2] = Cytotoxicity against human L02 cells assessed as inhibition of cell growth incubated for 48 hrs by CCK-8 assay; type: toxicity, cell-based
# Fusobacterium nucleatum [3] = assay: Antibacterial activity against Fusobacterium nucleatum ATCC 23726 assessed as bacterial growth inhibition incubated for 48 hrs by broth dilution susceptibility test; type: functional
# [4] = system: Salmonella enterica subsp. enterica serovar Paratyphi B; assay: Antibacterial activity against Salmonella paratyphi B ATCC CMCC50094 assessed as bacterial growth inhibition incubated for 48 hrs by broth dilution susceptibility test; type: functional
# [5] = Acute toxicity in ICR mouse assessed as death rate at 2592 mg/kg, po measured after 7 days; type: organism-based; details: in vivo, time 7 day, read-out: Activity
# Fusobacterium nucleatum [6] = assay: Antibiofilm activity against Fusobacterium nucleatum ATCC 23726 assessed as downregulation of tnaA gene expression measured after 48 hrs by RT-qPCR analysis; type: functional, organism-based
# [7] = Acute toxicity in po dosed ICR mouse assessed as lung damage by measuring thickening of alveolar walls at 1500 mg/kg, po measured after 7 days by H and E staining based analysis; type: organism-based; details: in vivo, 168 h, time 7 day
# Fusobacterium nucleatum [8] = assay: Antibiofilm activity against Fusobacterium nucleatum ATCC 23726 assessed as inhibition of biofilm formation incubated for 48 hrs by crystal violet staining based assay; type: functional, organism-based; details: dose 0.5-16 µg/ml
# Fusobacterium nucleatum [9] = assay: Inhibition of Fusobacterium nucleatum ATCC 23726 stimulated mouse MC-38 cell migration assessed as reduction in number of migrating cells at 16 to 32 ug/ml incubated for 48 hrs by crystal violet staining based transwell assay; type: functional; details: dose 16-32 µg/ml
# [10] = Acute toxicity in po dosed ICR mouse assessed as animal death measured after 7 days; type: organism-based; details: in vivo, time 7 day
# Staphylococcus aureus = assay: Antibacterial activity against Staphylococcus aureus ATCC 6538 assessed as bacterial growth inhibition incubated for 48 hrs by broth dilution susceptibility test; type: functional
# [11] = system: Peptostreptococcus anaerobius; assay: Antibacterial activity against Peptostreptococcus anaerobius ATCC 27337 assessed as bacterial growth inhibition incubated for 48 hrs by broth dilution susceptibility test; type: functional
# L02 = assay: Downregulation of HPPD gene expression in human L02 cells at 10 to 50 uM incubated for 48 hrs by RT-qPCR analysis; type: functional, cell-based; details: dose 10-50 µM
# Shigella flexneri = assay: Antibacterial activity against Shigella flexneri ATCC 12022 assessed as bacterial growth inhibition incubated for 48 hrs by broth dilution susceptibility test; type: functional
# [12] = Acute toxicity in ICR mouse assessed as death rate at 2160 mg/kg, po measured after 7 days; type: organism-based; details: in vivo, time 7 day, read-out: Activity
# [13] = system: Lactobacillus acidophilus; assay: Antibacterial activity against Lactobacillus acidophilus ATCC CGMCC 1.577 assessed as bacterial growth inhibition incubated for 48 hrs by broth dilution susceptibility test; type: functional
# MC-38 [14] = assay: Antiproliferative activity against mouse MC-38 cells assessed as inhibition of cell growth incubated for 48 hrs by CCK-8 assay; type: functional, cell-based; details: MC-38, 48 h
# HCT-116 = assay: Antiproliferative activity against human HCT-116 cells assessed as inhibition of cell growth incubated for 48 hrs by CCK-8 assay; type: functional, cell-based; details: HCT-116, 48 h
# [15] = Cytotoxicity against HUVEC cells assessed as inhibition of cell growth incubated for 48 hrs by CCK-8 assay; type: toxicity, cell-based; details: human
# Enterococcus faecalis = assay: Antibacterial activity against Enterococcus faecalis ATCC 29212 assessed as bacterial growth inhibition incubated for 48 hrs by broth dilution susceptibility test; type: functional
# [16] = Acute toxicity in po dosed ICR mouse assessed as kidney damage by measuring atrophy of glomerulus at 1500 mg/kg, po measured after 7 days by H and E staining based analysis; type: organism-based; details: in vivo, 168 h, time 7 day
# Escherichia coli = assay: Antibacterial activity against Escherichia coli […] assessed as bacterial growth inhibition incubated for 48 hrs by broth dilution susceptibility test; type: functional
# [17] = Tmax in Sprague-Dawley rat at 20 mg/kg, po measured upto 24 hrs by LC-MS/MS analysis; type: ADME, organism-based; details: in vivo
# Fusobacterium nucleatum [18] = assay: Inhibition of Fusobacterium nucleatum ATCC 23726 stimulated mouse MC-38 cell migration assessed as reduction in number of migrating cells at 2 to 4 ug/ml incubated for 48 hrs by crystal violet staining based transwell assay; type: functional; details: dose 2-4 µg/ml
# Fusobacterium nucleatum [19] = assay: Antibiofilm activity against Fusobacterium nucleatum ATCC 23726 assessed as inhibition of biofilm formation at 1 ug/ml incubated for 48 hrs by crystal violet staining based assay relative to control; type: functional
# [20] = Drug metabolism assessed as NTR(unknown origin)-mediated metabolism at 10 mM incubated for 2 hrs in presence of NADH by LC-MS analysis; type: ADME; details: bacteria, 10000 µM
# [21] = Acute toxicity in po dosed ICR mouse assessed as liver damage at 1500 mg/kg, po measured after 7 days by H and E staining based analysis; type: organism-based; details: in vivo, 168 h, time 7 day
# [22] = Metabolic stability in mouse liver microsomes assessed as half life at 1 uM incubated for 45 mins in presence of NADPH by LC-MS/MS analysis; type: ADME, Microsome
# [23] = Acute toxicity in po dosed ICR mouse assessed as heart damage at 1500 mg/kg, po measured after 7 days by H and E staining based analysis; type: organism-based; details: in vivo, 168 h, time 7 day
# [24] = Acute toxicity in po dosed ICR mouse assessed as spleen damage at 1500 mg/kg, po measured after 7 days by H and E staining based analysis; type: organism-based; details: in vivo, 168 h, time 7 day
# [25] = Acute toxicity in po dosed ICR mouse assessed as lung damage at 1500 mg/kg, po measured after 7 days by H and E staining based analysis; type: organism-based; details: in vivo, 168 h, time 7 day
# [26] = Oral bioavailability in Sprague-Dawley rat at 20 mg/kg measured upto 24 hrs by LC-MS/MS analysis; type: ADME, organism-based; details: in vivo
# MC-38 [27] = assay: Potency index, ratio of nitisinone IC50 to test compound IC50 for antiproliferative activity against mouse MC-38 cells assessed as inhibition of cell growth incubated for 48 hrs by CCK-8 assay; type: functional
# [28] = Clearance in Sprague-Dawley rat at 1 mg/kg, iv measured upto 24 hrs by LC-MS/MS analysis; type: ADME, organism-based; details: in vivo
# Fusobacterium nucleatum [29] = assay: Antibacterial activity against Fusobacterium nucleatum ATCC 23726 assessed as bacterial growth inhibition incubated for 72 hrs by turbidimeter analysis; type: functional, organism-based
# Fusobacterium nucleatum [30] = assay: Antibacterial activity against Fusobacterium nucleatum ATCC 23726 assessed as bacterial growth inhibition at 4 ug/ml incubated for 72 hrs by turbidimeter analysis; type: functional, organism-based; details: dose 4.0 µg/ml
# [31] = Half life in Sprague-Dawley rat at 1 mg/kg, iv measured upto 24 hrs by LC-MS/MS analysis; type: ADME, organism-based; details: in vivo
# [32] = Cmax in Sprague-Dawley rat at 1 mg/kg, iv measured upto 24 hrs by LC-MS/MS analysis; type: ADME, organism-based; design: dose 1 mg/kg, time < 24 hrs, route iv; details: in vivo
# [33] = Acute toxicity in po dosed ICR mouse assessed as kidney damage at 1500 mg/kg, po measured after 7 days by H and E staining based analysis; type: organism-based; details: in vivo, 168 h, time 7 day
Compound,Activity (Fusobacterium nucleatum [1]),MIC50 (Akkermansia muciniphila),IC50 at 48 h [2],MIC50 (Fusobacterium nucleatum [3]),MIC50 [4],mortality at 168 h [5],Activity (Fusobacterium nucleatum [6]),inhibition (Fusobacterium nucleatum [8]),LD50 at 168 h [10],MIC50 (Staphylococcus aureus),MIC50 [11],Activity (L02),MIC50 (Shigella flexneri),mortality at 168 h [12],MIC50 [13],IC50 (MC-38 [14]),IC50 (HCT-116),IC50 at 48 h [15],MIC50 (Enterococcus faecalis),MIC50 (Escherichia coli),other results
O=C1CCCC(=O)C1C(=O)c1ccc(C(F)(F)F)cc1[N+](=O)[O-] [NITISINONE],Dose-Dependent Effect,> 64 µg/mL,104 µM,8 µg/mL,> 64 µg/mL,90%,Dose-Dependent Effect,Dose-Dependent Effect,1610 mg/kg,> 64 µg/mL,> 64 µg/mL,Active,> 64 µg/mL,100%,64 µg/mL,96 µM,108 µM,338 µM,> 64 µg/mL,> 64 µg/mL,Activity [7]: Toxic; inhibition (Fusobacterium nucleatum [9]): Active; Activity [16]: Toxic
O=C(NCc1ccc(Br)nc1)c1ccc([N+](=O)[O-])o1,Dose-Dependent Effect,> 64 µg/mL,16 µM,1 µg/mL,> 64 µg/mL,70%,Dose-Dependent Effect,Dose-Dependent Effect,2400 mg/kg,> 64 µg/mL,64 µg/mL,Active,64 µg/mL,20%,64 µg/mL,11 µM,32 µM,16 µM,> 64 µg/mL,> 64 µg/mL,Tmax [17]: 84 min; MIC90 (Fusobacterium nucleatum [3]): 4 µg/mL; inhibition (Fusobacterium nucleatum [18]): Active; inhibition at 1 µg/mL (Fusobacterium nucleatum [19]): > 50%; Drug metabolism [20]: Metabolite_Detected; Activity [21]: Non-Toxic; half-life at 1 µM [22]: 25.1 min; Activity [23]: Non-Toxic; Activity [24]: Non-Toxic; Activity [25]: Non-Toxic; bioavailability [26]: 4.2%; Ratio IC50 (MC-38 [27]): 8; clearance [28]: 601 mL/min/kg; Activity (Fusobacterium nucleatum [29]): Dose-Dependent Effect; Activity (Fusobacterium nucleatum [30]): Active; half-life [31]: ~4.08 min; Cmax [32]: 85 ng/mL; Activity [33]: Non-Toxic
